Results on 28 compounds are retold here after patent publication US9428514B2, “Bromodomain inhibitors” (AbbVie Inc., priority 2013, dated 2016).

pEC50: −log10 of the molar value.

For this experiment, the system named is breast cancer cell line MX-1. The experiment is described as follows: MX-1 cell line proliferation assay (3-day, Cell Titer Glo). It counts as cell-based. Conditions: Homo sapiens, MX1, MX-1 cells, 72 hours, read-out: Cellular proliferation: EC50. As to the method: The impact of compounds of the Examples on cancer cell proliferation was determined using the breast cancer cell line MX-1 (ATCC) in a 3-day proliferation assay. MX-1 cells were maintained in RPMI supplemented with 10% FBS at 37° C. and an atmosphere of 5% CO2. For compound testing, MX-1 cells were plated in 96-well black bottom plates at a density of 5000 cells/well in 90 μL of culture media and incubated at 37° overnight to allow cell adhesion and spreading. Compound dilution series were prepared in DMSO via a 3-fold serial dilution from 3 mM to […]. The DMSO dilution series were then diluted 1:100 in phosphate buffered saline, and 10 μL of the resulted solution were added to the appropriate wells of the MX-1 cell plate. The final compound concentrations in the wells were 3, 1, 0.3, 0.1, 0.03, 0.01, 0.003, 0.001, 0.0003, 0.0001, and 0.00003 μM.
Luminescence readings from the Cell Titer Glo assay were normalized to the DMSO treated cells and analyzed using the GraphPad Prism software with sigmoidal curve fitting to obtain EC50s. The minimum significant ratio (MSR) was determined to evaluate assay reproducibility (Eastwood et al., (2006) J Biomol Screen, 11: 253-261). The overall MSR was determined to be 2.1 and a moving MSR (last six run MSR overtime) has been <2. The EC50 values are reported in Table 1 for the indicated compounds.
For `CCOc1cc(=O)n(C)cc1-c1cc(NC(=O)Cc2cc(F)ccc2Cl)ccc1Oc1ccc(F)cc1F` [Example 1, 2-(2-chloro-5-fluorophenyl)-N-[4-(2,4-difluorophenoxy)-3-(4-ethoxy-1-methyl-6-oxo-1,6-dihydropyridin-3-yl)phenyl]acetamide], the pEC50 was 6.94.

Consider `CCOc1cc(=O)n(C)cc1-c1cc(NC(=O)Cc2ccc3c(c2)CCCO3)ccc1Oc1ccc(F)cc1F` [Example 2, N-[4-(2,4-difluorophenoxy)-3-(4-ethoxy-1-methyl-6-oxo-1,6-dihydropyridin-3-yl)phenyl]-2-(3,4-dihydro-2H-chromen-6-yl)acetamide], for which the pEC50 is 6.55. Consider `CCOc1cc(=O)n(C)cc1-c1cc(NC(=O)Cc2ccc(Cl)cc2F)ccc1Oc1ccc(F)cc1F` [Example 3, 2-(4-chloro-2-fluorophenyl)-N-[4-(2,4-difluorophenoxy)-3-(4-ethoxy-1-methyl-6-oxo-1,6-dihydropyridin-3-yl)phenyl]acetamide], for which the pEC50 is 6.36. Next, `CCOc1cc(=O)n(C)cc1-c1cc(NC(=O)Cc2cnn(C)c2)ccc1Oc1ccc(F)cc1F` [Example 4, N-[4-(2,4-difluorophenoxy)-3-(4-ethoxy-1-methyl-6-oxo-1,6-dihydropyridin-3-yl)phenyl]-2-(1-methyl-1H-pyrazol-4-yl)acetamide]: 6.37; `CCOc1cc(=O)n(C)cc1-c1cc(NC(=O)Cc2ccc(C)nc2)ccc1Oc1ccc(F)cc1F` [Example 5, N-[4-(2,4-difluorophenoxy)-3-(4-ethoxy-1-methyl-6-oxo-1,6-dihydropyridin-3-yl)phenyl]-2-(6-methylpyridin-3-yl)acetamide]: 6.17. For the compound `CCOc1cc(=O)n(C)cc1-c1cc(NC(=O)Cc2cc(C)n(C)n2)ccc1Oc1ccc(F)cc1F` [Example 6, N-[4-(2,4-difluorophenoxy)-3-(4-ethoxy-1-methyl-6-oxo-1,6-dihydropyridin-3-yl)phenyl]-2-(1,5-dimethyl-1H-pyrazol-3-yl)acetamide], the pEC50 was 6.45.

Take `CCOc1cc(=O)n(C)cc1-c1cc(NC(=O)Cc2cnc(C)s2)ccc1Oc1ccc(F)cc1F` [Example 7, N-[4-(2,4-difluorophenoxy)-3-(4-ethoxy-1-methyl-6-oxo-1,6-dihydropyridin-3-yl)phenyl]-2-(2-methyl-1,3-thiazol-5-yl)acetamide]: the pEC50 is 6.73. On to `CCOc1cc(=O)n(C)cc1-c1cc(NC(=O)Cn2ccc(-c3ccccc3F)n2)ccc1Oc1ccc(F)cc1F` [Example 8, N-[4-(2,4-difluorophenoxy)-3-(4-ethoxy-1-methyl-6-oxo-1,6-dihydropyridin-3-yl)phenyl]-2-[3-(2-fluorophenyl)-1H-pyrazol-1-yl]acetamide], for which the pEC50 is < 5.52.

With `CCOc1cc(=O)n(C)cc1-c1cc(NCCCn2cccn2)ccc1Oc1ccc(F)cc1F` [Example 9, 5-[2-(2,4-difluorophenoxy)-5-{[3-(1H-pyrazol-1-yl)propyl]amino}phenyl]-4-ethoxy-1-methylpyridin-2(1H)-one], the pEC50 was 6.13. On to `CCOc1cc(=O)n(C)cc1-c1cc(NCc2cn3c(n2)CCC3)ccc1Oc1ccc(F)cc1F` [Example 10, 5-{2-(2,4-difluorophenoxy)-5-[(6,7-dihydro-5H-pyrrolo[1,2-a]imidazol-2-ylmethyl)amino]phenyl}-4-ethoxy-1-methylpyridin-2(1H)-one], for which the pEC50 is 5.72. As to `CCOc1cc(=O)n(C)cc1-c1cc(NCc2cccc(C)n2)ccc1Oc1ccc(F)cc1F` [Example 11, 5-[2-(2,4-difluorophenoxy)-5-{[(6-methylpyridin-2-yl)methyl]amino}phenyl]-4-ethoxy-1-methylpyridin-2(1H)-one], the pEC50 is 6.05.

Take `CCOc1cc(=O)n(C)cc1-c1cc(NCc2ncccc2C)ccc1Oc1ccc(F)cc1F` [Example 12, 5-[2-(2,4-difluorophenoxy)-5-{[(3-methylpyridin-2-yl)methyl]amino}phenyl]-4-ethoxy-1-methylpyridin-2(1H)-one]: the pEC50 was 5.99. Regarding `CCOc1cc(=O)n(C)cc1-c1cc(NCc2ccnn2C)ccc1Oc1ccc(F)cc1F` [Example 13, 5-[2-(2,4-difluorophenoxy)-5-{[(1-methyl-1H-pyrazol-5-yl)methyl]amino}phenyl]-4-ethoxy-1-methylpyridin-2(1H)-one], the pEC50 is 5.83. Then `CCOc1cc(=O)n(C)cc1-c1cc(NCCCC(=O)OC)ccc1Oc1ccc(F)cc1F` [Example 14, methyl 4-{[4-(2,4-difluorophenoxy)-3-(4-ethoxy-1-methyl-6-oxo-1,6-dihydropyridin-3-yl)phenyl]amino}butanoate], with 6.95. Consider `CCOc1cc(=O)n(C)cc1-c1cc(NC(=O)Nc2ccc(C)cc2C)ccc1Oc1ccc(F)cc1F` [Example 16, 1-[4-(2,4-difluorophenoxy)-3-(4-ethoxy-1-methyl-6-oxo-1,6-dihydropyridin-3-yl)phenyl]-3-(2,4-dimethylphenyl)urea], for which the pEC50 is < 5.52.

Take `CCOc1cc(=O)n(C)cc1-c1cc(NC(=O)Nc2cc(C)ccc2C)ccc1Oc1ccc(F)cc1F` [Example 19, 1-[4-(2,4-difluorophenoxy)-3-(4-ethoxy-1-methyl-6-oxo-1,6-dihydropyridin-3-yl)phenyl]-3-(2,5-dimethylphenyl)urea]: the pEC50 is 6.25. Then `CCOc1cc(=O)n(C)cc1-c1cc(NCc2cnco2)ccc1Oc1ccc(F)cc1F` [Example 23, 5-{2-(2,4-difluorophenoxy)-5-[(1,3-oxazol-5-ylmethyl)amino]phenyl}-4-ethoxy-1-methylpyridin-2(1H)-one], with < 5.52; and `CCOc1cc(=O)n(C)cc1-c1cc(NCc2cncn2C)ccc1Oc1ccc(F)cc1F` [Example 24, 5-[2-(2,4-difluorophenoxy)-5-{[(1-methyl-1H-imidazol-5-yl)methyl]amino}phenyl]-4-ethoxy-1-methylpyridin-2(1H)-one], with 6.08. Then `CCOc1cc(=O)n(C)cc1-c1cc(NCc2ccn(CC)n2)ccc1Oc1ccc(F)cc1F` [Example 25, 5-[2-(2,4-difluorophenoxy)-5-{[(1-ethyl-1H-pyrazol-3-yl)methyl]amino}phenyl]-4-ethoxy-1-methylpyridin-2(1H)-one], with 5.81; and `CCOc1cc(=O)n(C)cc1-c1cc(NC(=O)CCS(=O)(=O)c2ccccc2)ccc1Oc1ccc(F)cc1F` [Example 27, N-[4-(2,4-difluorophenoxy)-3-(4-ethoxy-1-methyl-6-oxo-1,6-dihydropyridin-3-yl)phenyl]-3-(phenylsulfonyl)propanamide], with 6.14; and `CCOc1cc(=O)n(C)cc1-c1cc(NC(=O)Cc2cccc(Oc3ccccc3)c2)ccc1Oc1ccc(F)cc1F` [Example 28, N-[4-(2,4-difluorophenoxy)-3-(4-ethoxy-1-methyl-6-oxo-1,6-dihydropyridin-3-yl)phenyl]-2-(3-phenoxyphenyl)acetamide], with 6.22. As for `CCOc1cc(=O)n(C)cc1-c1cc(NC(=O)Cc2ccc(S(C)(=O)=O)cc2)ccc1Oc1ccc(F)cc1F` [Example 29, N-[4-(2,4-difluorophenoxy)-3-(4-ethoxy-1-methyl-6-oxo-1,6-dihydropyridin-3-yl)phenyl]-2-[4-(methylsulfonyl)phenyl]acetamide], the pEC50 is 6.36. As for `CCOc1cc(=O)n(C)cc1-c1cc(NC(=O)CCOc2ccccc2)ccc1Oc1ccc(F)cc1F` [Example 30, N-[4-(2,4-difluorophenoxy)-3-(4-ethoxy-1-methyl-6-oxo-1,6-dihydropyridin-3-yl)phenyl]-3-phenoxypropanamide], the pEC50 was < 5.52. For `CCOc1cc(=O)n(C)cc1-c1cc(NC(=O)COc2ccc(C)cc2)ccc1Oc1ccc(F)cc1F` [Example 33, N-[4-(2,4-difluorophenoxy)-3-(4-ethoxy-1-methyl-6-oxo-1,6-dihydropyridin-3-yl)phenyl]-2-(4-methylphenoxy)acetamide], the pEC50 is 6.33. As to `CCOc1cc(=O)n(C)cc1-c1cc(NC(=O)COCc2ccccc2)ccc1Oc1ccc(F)cc1F` [Example 35, 2-(benzyloxy)-N-[4-(2,4-difluorophenoxy)-3-(4-ethoxy-1-methyl-6-oxo-1,6-dihydropyridin-3-yl)phenyl]acetamide], the pEC50 was 6.43. On to `CCOc1cc(=O)n(C)cc1-c1cc(NC(=O)Cc2noc3ccccc23)ccc1Oc1ccc(F)cc1F` [Example 36, 2-(1,2-benzoxazol-3-yl)-N-[4-(2,4-difluorophenoxy)-3-(4-ethoxy-1-methyl-6-oxo-1,6-dihydropyridin-3-yl)phenyl]acetamide], for which the pEC50 is 6.32. For the compound `CCOc1cc(=O)n(C)cc1-c1cc(NC(=O)Cc2ccc(Oc3ccccc3)cc2)ccc1Oc1ccc(F)cc1F` [Example 37, N-[4-(2,4-difluorophenoxy)-3-(4-ethoxy-1-methyl-6-oxo-1,6-dihydropyridin-3-yl)phenyl]-2-(4-phenoxyphenyl)acetamide], the pEC50 was 5.84. As for `CCOc1cc(=O)n(C)cc1-c1cc(NC(=O)CCCc2ccccc2)ccc1Oc1ccc(F)cc1F` [Example 38, N-[4-(2,4-difluorophenoxy)-3-(4-ethoxy-1-methyl-6-oxo-1,6-dihydropyridin-3-yl)phenyl]-4-phenylbutanamide], the pEC50 is 6.11.
